Source: EP0768085A1, “ANTIBACTERIAL AGENT” (DAIICHI PHARMACEUTICAL CO., LTD., priority 1994, dated 1996)
Values after ≈ are worked out from the molar mass of the structure shown.

Legend:
Assay type in all cases: cell-based
Pasteurella from fish = assay: Antibacterial activity (IC), agar as in Example 8, media with 1.5% NaCl, 25°C (Example 20, Tables 53-55); conditions: for MIC: Pasteurella piscicida KP94-02
Procedure: (§1) The antibacterial action was evaluated by the inhibitory concentration (hereinafter abbreviated as IC) at which propagation of the bacteria cultured at 37°C for 18 hours was inhibited. Inhibition was determined by the turbidity of the medium. The expressions "IC≤100", "≤10", and "≤1" indicate that MIC-equivalent values obtained at the succesive […] dilution of the sample are 100-10 µg/ml, 10-1 µg/ml, and not more than 1 µg/ml, respectively. […] (In the subsequent Examples, the same rule applies correspondingly.) Table 39
(§2) A suitable amount of a sample was dissolved in dimethylsulfoxide (DMSO), after which the resulting solution was diluted with the same amount of sterilized distilled water to prepare a bulk sample of 1,000 µg/ml. Separately, a bacterial liquid for the test (methicillin-resistant Staphylococcus aureus (MRSA) isolated from humans) which had been cultured in Mueller-Hinton broth (product of DIFCO) was prepared and inoculated to a Mueller-Hinton agar (product of DIFCO) containing the sample so that the final inoculation amount of 10^6 CFU/ml was achieved. The final concentrations of the samples were 100, 10, and 1 µg/ml.
(§3) After culturing at 37°C for 18 hours, the antibacterial activity was evaluated in terms of IC in a manner similar to that described in Example 4.
(§4) In a manner similar to that described in Example 8, antibacterial activity of a variety of ketonitrile derivatives shown in Tables 53-55 was measured. The bacteria used for the test were Enterococcus and Pasteurella from fish. The culture conditions were such that the media contained 1.5% NaCl, and the culture temperature was 25°C.

Enterococcus from fish = assay: as above; conditions: for MIC: Enterococcus Seriolicida SE94-002
Procedure: as §1, §2, §3, §4

[1] = system: Staphylococcus aureus (209-P); assay: Antibacterial activity (IC), agar as in Example 8 (Example 15, Table 48); conditions: 18 h
Procedure: as §1, §2, §3
The bacterium used for the test was Staphylococcus aureus (209-P).

[2] = system: Streptococcus aureus (TI-1); assay: Antibacterial activity (IC), agar as in Example 8 (Example 16, Table 49); conditions: 18 h
Procedure: as §1, §2, §3
In a manner similar to that described in Example 8, antibacterial activity of the invention compound was determined. The bacterium used for the test was […] aureus (TI-1).

[3] = system: methicillin-resistant Staphylococcus aureus (MRSA) from humans; assay: Antibacterial activity (IC), agar as in Example 8 (Example 19, Table 52); conditions: 18 h
Procedure: as §1, §2, §3
In a manner similar to that described in Example 8, antibacterial activity of a variety of ketonitrile derivatives shown in Table 52 was measured. The bacterium used for the test was methicillin-resistant Staphylococcus aureus (MRSA) from humans.

[4] = system: Pasteurella multocida (Kobe-6); assay: Antibacterial activity (IC), agar as in Example 8 (Example 17, Table 50); conditions: 18 h, origin pig
Procedure: as §1, §2, §3
In a manner similar to that described in Example 8, antibacterial activity of the invention compound was determined. The bacterium used for the test was Pasteurella Kobe-6 (origin: pig, Pasteurella multocida).

[5] = Enterococcus Seriolicida KG86050
[6] = Enterococcus Seriolicida MS89060
[7] = Enterococcus Seriolicida MS89064
[8] = Enterococcus Seriolicida MS89066
[9] = Enterococcus Seriolicida MS89068
[10] = Enterococcus Seriolicida SE94-001
[11] = Enterococcus Seriolicida SE94-003
[12] = Enterococcus Seriolicida SE94-004
[13] = Enterococcus Seriolicida SE94-005

Structure (SMILES) | MIC (Pasteurella from fish) | IC (Pasteurella from fish; Pasteurella piscicida KP94-04) | IC (Pasteurella from fish; Pasteurella piscicida KP94-05) | IC (Pasteurella from fish; Pasteurella piscicida KP94-06) | IC (Enterococcus from fish; Enterococcus Seriolicida HI) | IC (Enterococcus from fish; [5]) | IC (Enterococcus from fish; [6]) | IC (Enterococcus from fish; [7]) | IC (Enterococcus from fish; [8]) | IC (Enterococcus from fish; [9]) | IC (Enterococcus from fish; [10]) | MIC (Enterococcus from fish) | IC (Enterococcus from fish; [11]) | IC (Enterococcus from fish; [12]) | IC (Enterococcus from fish; [13]) | MIC [1] | MIC [2] | MIC [4] | other results
CC(Oc1cccc(Oc2ccc(C(F)(F)F)cc2Cl)c1)C(=O)C(C#N)c1ccccc1 (stereo not drawn) [Compound No. 105, 4-[3-(2-chloro-4-trifluoromethylphenoxy)phenoxy]-3-oxo-2-phenylpentanonitrile] | 10 to 100 µg/mL (≈ 21.7 to 217 µM) | ≤100 (MIC-equivalent values obtained at the succesive 2-fold dilution of the sample are 100-10 µg/ml) | ≤100 (MIC-equivalent values obtained at the succesive 2-fold dilution of the sample are 100-10 µg/ml) | ≤100 (MIC-equivalent values obtained at the succesive 2-fold dilution of the sample are 100-10 µg/ml) | ≤10 (10-1 µg/ml) | ≤10 (10-1 µg/ml) | ≤10 (10-1 µg/ml) | ≤10 (10-1 µg/ml) | ≤10 (10-1 µg/ml) | ≤10 (10-1 µg/ml) | ≤10 (10-1 µg/ml) | 1 to 10 µg/mL (≈ 2.17 to 21.7 µM) | ≤10 (10-1 µg/ml) | ≤10 (10-1 µg/ml) | ≤10 (10-1 µg/ml) | 1 to 10 µg/mL (≈ 2.17 to 21.7 µM) | 1 to 10 µg/mL (≈ 2.17 to 21.7 µM) | 10 to 100 µg/mL (≈ 21.7 to 217 µM) | MIC ([3]; MRSA strain 891179): 1 to 10 µg/mL (≈ 2.17 to 21.7 µM); MIC ([3]; MRSA strain 891185): 1 to 10 µg/mL (≈ 2.17 to 21.7 µM); MIC ([3]; MRSA strain 891187): 1 to 10 µg/mL (≈ 2.17 to 21.7 µM); MIC ([3]; MRSA strain 891192): 1 to 10 µg/mL (≈ 2.17 to 21.7 µM); MIC ([3]; MRSA strain 900048): 1 to 10 µg/mL (≈ 2.17 to 21.7 µM); MIC ([3]; MRSA strain 900056): 1 to 10 µg/mL (≈ 2.17 to 21.7 µM)
CC(Oc1cccc(Oc2ccc(C(F)(F)F)cc2Cl)c1)C(=O)C(C#N)c1cccc(C(F)(F)F)c1 (stereo not drawn) [Compound No. 106, 4-[3-(2-chloro-4-trifluoromethylphenoxy)phenoxy]-3-oxo-2-(3-trifluoromethylphenyl)pentanonitrile] | 10 to 100 µg/mL (≈ 18.9 to 189 µM) | ≤100 (MIC-equivalent values obtained at the succesive 2-fold dilution of the sample are 100-10 µg/ml) | ≤100 (MIC-equivalent values obtained at the succesive 2-fold dilution of the sample are 100-10 µg/ml) | ≤100 (MIC-equivalent values obtained at the succesive 2-fold dilution of the sample are 100-10 µg/ml) | ≤10 (10-1 µg/ml) | ≤10 (10-1 µg/ml) | ≤10 (10-1 µg/ml) | ≤10 (10-1 µg/ml) | ≤10 (10-1 µg/ml) | ≤10 (10-1 µg/ml) | ≤10 (10-1 µg/ml) | 1 to 10 µg/mL (≈ 1.89 to 18.9 µM) | ≤10 (10-1 µg/ml) | ≤10 (10-1 µg/ml) | ≤10 (10-1 µg/ml) | 1 to 10 µg/mL (≈ 1.89 to 18.9 µM) | 1 to 10 µg/mL (≈ 1.89 to 18.9 µM) | 10 to 100 µg/mL (≈ 18.9 to 189 µM) | 
CC(Oc1cccc(Oc2ccc(C(F)(F)F)cc2Cl)c1)C(=O)C(C#N)c1ccc(Cl)cc1Cl (stereo not drawn) [Compound No. 108, 4-[3-(2-chloro-4-trifluoromethyl-phenoxy)phenoxy)-2-(2,4-dichlorophenyl)-3-oxopentanonitrile] | 10 to 100 µg/mL (≈ 18.9 to 189 µM) | ≤100 (MIC-equivalent values obtained at the succesive 2-fold dilution of the sample are 100-10 µg/ml) | ≤100 (MIC-equivalent values obtained at the succesive 2-fold dilution of the sample are 100-10 µg/ml) | ≤100 (MIC-equivalent values obtained at the succesive 2-fold dilution of the sample are 100-10 µg/ml) | ≤10 (10-1 µg/ml) | ≤10 (10-1 µg/ml) | ≤10 (10-1 µg/ml) | ≤10 (10-1 µg/ml) | ≤10 (10-1 µg/ml) | ≤10 (10-1 µg/ml) | ≤10 (10-1 µg/ml) | 1 to 10 µg/mL (≈ 1.89 to 18.9 µM) | ≤10 (10-1 µg/ml) | ≤10 (10-1 µg/ml) | ≤10 (10-1 µg/ml) | 1 to 10 µg/mL (≈ 1.89 to 18.9 µM) | 1 to 10 µg/mL (≈ 1.89 to 18.9 µM) | 10 to 100 µg/mL (≈ 18.9 to 189 µM) | 
